Assay results taken from patent US6737383B1, “Herbicidal oxadiazolidines” (priority 1999, dated 2004).

What was measured:
morningglory = experiment: Test B pre/postemergence morningglory; format: in vivo, Ipomoea hederacea
How it was run: (§1)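 Test chemicals in a non-phytotoxic solvent mixture with surfactant were sprayed preemergence onto planted seeds and postemergence onto plants 2 to 18 cm tall (1- to 4-leaf stage). After twelve to sixteen days in a greenhouse, injury was visually rated against untreated controls from 0 (no effect) to 10 (complete control).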

winter barley = experiment: Test E winter barley; format: in vivo, Hordeum vulgare; conditions: Preemergence
Italian ryegrass = experiment: Test E Italian ryegrass; format: in vivo, Lolium multiflorum; conditions: Preemergence
Green foxtail [1] = experiment: Test D green foxtail; format: in vivo; conditions: Preemergence, 0 to 100 scale
How it was run: (§2)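 Each weed species is planted in its own pot or compartment; preemergence doses go on the sandy loam surface within a day. The formulation is a surfactant-containing, non-phytotoxic solvent blend. Ratings come from visual comparison with untreated controls 14 to 21 days later, where 100 means complete control.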

wild oat = experiment: Test E wild oat; format: in vivo, Avena fatua; conditions: Preemergence, 0 to 100 scale where 0 is no effect and 100 is complete control
green foxtail [2] = experiment: Test E green foxtail; format: in vivo, Setaria viridis; conditions: Preemergence
pigweed = experiment: Test B pre/postemergence pigweed; format: in vivo, Amaranthus retroflexus
How it was run: as §1

blackgrass = experiment: Test E blackgrass; format: in vivo, Alopecurus myosuroides; conditions: Preemergence
winter wheat [3] = experiment: Test E winter wheat; format: in vivo, Triticum aestivum; conditions: Postemergence
How it was run: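 Postemergence: spray at 1–4 leaf stage, soil 60:40 sandy loam:potting mix; solvent + surfactant formulation; greenhouse 21–28 d; visual injury vs untreated controls.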

winter wheat [4] = experiment: Test E winter wheat; format: in vivo, Triticum aestivum; conditions: Preemergence
common ragweed = experiment: Test D common ragweed; format: in vivo, Ambrosia elatior; conditions: Preemergence, 0 to 100 scale
How it was run: as §2

itchgrass = experiment: Test D itchgrass; format: in vivo, Rottboellia exaltata; conditions: Preemergence, 0 to 100 scale
How it was run: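 Scoring used a 0–100 visual injury scale, with 0 meaning no effect and 100 complete control, assessed 14–21 days after application alongside untreated pots. Preemergence treatments went onto sandy loam surfaces of separately potted seeds within a day of sowing.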

giant foxtail = experiment: Test B pre/postemergence giant foxtail; format: in vivo, Setaria faberii
How it was run: as §1

Green foxtail [5] = experiment: Test D green foxtail; format: in vivo
How it was run: as §2

[6] = Postemergence, Rate 125 g/ha, scale of 0 to 10 where 0 is no effect and 10 is complete control
[7] = Postemergence, Rate 250 g/ha, scale 0 to 10, 0 no effect, 10 complete control
[8] = Preemergence, Rate 62 g/ha, scale 0 to 10 (0 no effect, 10 complete control)
[9] = Preemergence, Rate 125 g/ha, scale 0 to 10 (0 no effect, 10 complete control)
[10] = Preemergence, Rate 250 g/ha, scale of 0 to 10 where 0 is no effect and 10 is complete control
[11] = Preemergence, Rate 500 g/ha, scale 0 to 10 (0 no effect, 10 complete control)
[12] = Rate 62 g/ha, Postemergence, scale of 0 to 10 where 0 is no effect and 10 is complete control
[13] = Rate 500 g/ha, Postemergence, scale 0 to 10, 0 no effect, 10 complete control
[14] = Rate 500 g/ha, 0 to 100 scale where 0 is no effect and 100 is complete control
[15] = Rate 1000 g/ha, 0 to 100 scale where 0 is no effect and 100 is complete control
[16] = Rate 16 g/ha, 0 no injury, 100 complete control
[17] = Rate 32 g/ha, 0 no injury, 100 complete control
[18] = Rate 64 g/ha, 0 no injury, 100 complete control
[19] = Rate 125 g/ha, 0 no injury, 100 complete control
[20] = Rate 64 g/ha, Preemergence; 0 to 100 scale, 0 no injury, 100 complete control
[21] = Rate 125 g/ha, Preemergence; 0 to 100 scale, 0 no injury, 100 complete control

Q: With `CC(C)N(C(=O)n1oc(=O)n(Cc2cccs2)c1=O)c1ccccc1` [Compound 103] as the compound, how does the “Morningglory plant response rating” value (morningglory; [6]) read?
A: Its value is 10.

Q: What about the “Morningglory plant response rating” value (morningglory; [7]) of the same compound?
A: The value was 10.

Q: What about the “Morningglory plant response rating” value (morningglory; [8]) of the same compound?
A: Its value is 0.

Q: What about the “Plant response rating, Morningglory” value (morningglory; [9]) of the same compound?
A: Its value is 0.

Q: What about the “Plant response rating, Morningglory” value (morningglory; [10]) of the same compound?
A: Its value is 0.

Q: And the “Morningglory plant response rating” value (morningglory; [11])?
A: Its value is 0.

Q: What about the “Morningglory plant response rating” value (morningglory; [12]) of the same compound?
A: Its value is 8.

Q: And the “Morningglory plant response rating” value (morningglory; [13])?
A: Its value is 10.

Q: And the “Plant response rating, Barley (winter)” value (winter barley; Rate 250 g/ha, 0 to 100 scale)?
A: Its value is 30.

Q: What about the “Plant response rating, Barley (winter)” value (winter barley; [14]) of the same compound?
A: The value was 40.

Q: What about the “Plant response rating, Barley (winter)” value (winter barley; [15]) of the same compound?
A: The value was 50.

Q: What about the “Plant response rating, I. Ryegrass” value (Italian ryegrass; Rate 250 g/ha, 0 to 100 scale) of the same compound?
A: The value was 50.

Q: And the “Plant response rating, I. Ryegrass” value (Italian ryegrass; [14])?
A: Its value is 50.

Q: And the “Plant response rating, I. Ryegrass” value (Italian ryegrass; [15])?
A: Its value is 70.

Q: What about the “Plant response rating, Green foxtail” value (Green foxtail [1]; Rate 250 g/ha) of the same compound?
A: Its value is 100.

Q: And the “Plant response rating, Green foxtail” value (Green foxtail [1]; Rate 500 g/ha)?
A: Its value is 100.

Q: And the “Plant response rating, Wild oat” value (wild oat; Rate 500 g/ha)?
A: The value was 50.

Q: What about the “Plant response rating, Wild oat” value (wild oat; Rate 1000 g/ha) of the same compound?
A: The value was 70.

Q: And the “Plant response rating, Green foxtail” value (green foxtail [2]; Rate 250 g/ha, 0 to 100 scale)?
A: Its value is 70.

Q: What about the “Plant response rating, Green foxtail” value (green foxtail [2]; [14]) of the same compound?
A: Its value is 70.

Q: And the “Plant response rating, Green foxtail” value (green foxtail [2]; [15])?
A: The value was 100.

Q: And the “Redroot pigweed plant response rating” value (pigweed; [6])?
A: The value was 0.

Q: And the “Redroot pigweed plant response rating” value (pigweed; [8])?
A: Its value is 0.

Q: And the “Plant response rating, Redroot pigweed” value (pigweed; [9])?
A: The value was 0.

Q: What about the “Plant response rating, Redroot pigweed” value (pigweed; [10]) of the same compound?
A: The value was 6.

Q: And the “Redroot pigweed plant response rating” value (pigweed; [11])?
A: The value was 7.

Q: And the “Redroot pigweed plant response rating” value (pigweed; [12])?
A: The value was 0.

Q: And the “Plant response rating, Redroot pigweed” value (pigweed; Rate 250 g/ha, Postemergence, scale 0 to 10, 0 is no effect, 10 is complete control)?
A: The value was 2.

Q: And the “Redroot pigweed plant response rating” value (pigweed; [13])?
A: Its value is 4.

Q: And the “Plant response rating, Blackgrass” value (blackgrass; Rate 250 g/ha, 0 to 100 scale)?
A: Its value is 30.

Q: And the “Plant response rating, Blackgrass” value (blackgrass; [14])?
A: Its value is 50.

Q: What about the “Plant response rating, Blackgrass” value (blackgrass; [15]) of the same compound?
A: Its value is 70.

Q: And the “Plant response rating, Wheat (winter)” value (winter wheat [3]; Rate 250 g/ha, 0 to 100 scale (0 no effect, 100 complete control))?
A: The value was 0.

Q: What about the “Plant response rating, Wheat (winter)” value (winter wheat [3]; Rate 1000 g/ha, 0 to 100 scale, 0 is no effect and 100 is complete control) of the same compound?
A: The value was 10.

Q: What about the “Plant response rating, Wheat (winter)” value (winter wheat [3]; Rate 500 g/ha, 0 to 100 scale, 0 no effect, 100 complete control) of the same compound?
A: The value was 0.

Q: And the “Plant response rating, Wheat (winter)” value (winter wheat [4]; Rate 250 g/ha, 0 to 100 scale)?
A: Its value is 20.

Q: What about the “Plant response rating, Wheat (winter)” value (winter wheat [4]; [14]) of the same compound?
A: The value was 30.

Q: What about the “Plant response rating, Wheat (winter)” value (winter wheat [4]; [15]) of the same compound?
A: Its value is 30.

Q: And the “Plant response rating, C. ragweed” value (common ragweed; [16])?
A: The value was 0.

Q: And the “Plant response rating, C. ragweed” value (common ragweed; [17])?
A: The value was 0.

Q: And the “Plant response rating, C. ragweed” value (common ragweed; [18])?
A: Its value is 0.

Q: And the “Plant response rating, C. ragweed” value (common ragweed; [19])?
A: The value was 0.

Q: What about the “Plant response rating, C. ragweed” value (common ragweed; Rate 250 g/ha) of the same compound?
A: The value was 0.

Q: What about the “Plant response rating, C. ragweed” value (common ragweed; Rate 500 g/ha) of the same compound?
A: Its value is 0.

Q: And the “Plant response rating, Itchgrass” value (itchgrass; [16])?
A: Its value is 0.

Q: And the “Plant response rating, Itchgrass” value (itchgrass; [17])?
A: Its value is 0.

Q: And the “Plant response rating, Itchgrass” value (itchgrass; [18])?
A: Its value is 0.

Q: And the “Plant response rating, Itchgrass” value (itchgrass; [19])?
A: The value was 0.

Q: What about the “Plant response rating, Itchgrass” value (itchgrass; Rate 250 g/ha) of the same compound?
A: The value was 0.

Q: What about the “Plant response rating, Itchgrass” value (itchgrass; Rate 500 g/ha) of the same compound?
A: Its value is 0.

Q: What about the “Giant foxtail plant response rating” value (giant foxtail; [6]) of the same compound?
A: The value was 1.

Q: What about the “Giant foxtail plant response rating” value (giant foxtail; [7]) of the same compound?
A: Its value is 3.

Q: And the “Giant foxtail plant response rating” value (giant foxtail; [8])?
A: Its value is 8.

Q: And the “Plant response rating, Giant foxtail” value (giant foxtail; [9])?
A: Its value is 9.

Q: What about the “Plant response rating, Giant foxtail” value (giant foxtail; [10]) of the same compound?
A: Its value is 9.

Q: And the “Giant foxtail plant response rating” value (giant foxtail; [11])?
A: The value was 9.

Q: And the “Giant foxtail plant response rating” value (giant foxtail; [12])?
A: The value was 0.

Q: What about the “Giant foxtail plant response rating” value (giant foxtail; [13]) of the same compound?
A: Its value is 7.

Q: What about the “Plant response rating, Green foxtail” value (Green foxtail [5]; Preemergence; Rate 16 g/ha; 0 to 100 scale, 0 no injury, 100 complete control) of the same compound?
A: The value was 0.

Q: What about the “Plant response rating, Green foxtail” value (Green foxtail [5]; Preemergence; Rate 32 g/ha; 0 to 100 scale, 0 no injury, 100 complete control) of the same compound?
A: The value was 0.

Q: And the “Plant response rating, Green foxtail” value (Green foxtail [5]; Rate 16 g/ha; Preemergence; 0 to 100 scale, 0 no injury, 100 complete control)?
A: The value was 0.

Q: And the “Plant response rating, Green foxtail” value (Green foxtail [5]; Rate 32 g/ha; Preemergence; 0 to 100 scale, 0 no injury, 100 complete control)?
A: Its value is 85.

Q: And the “Green foxtail plant response rating” value (Green foxtail [5]; [20])?
A: Its value is 50.

Q: And the “Plant response rating, Green foxtail” value (Green foxtail [5]; [20])?
A: Its value is 50.

Q: And the “Green foxtail plant response rating” value (Green foxtail [5]; [21])?
A: The value was 100.

Q: And the “Plant response rating, Green foxtail” value (Green foxtail [5]; [21])?
A: The value was 100.

Q: And the “Plant response rating, Green foxtail” value (Green foxtail [5]; Rate 250 g/ha; Preemergence; 0 to 100 scale)?
A: The value was 100.

Q: And the “Plant response rating, Green foxtail” value (Green foxtail [5]; Rate 500 g/ha, Preemergence; 0 to 100 scale)?
A: Its value is 100.
